According to patent US4939124A, “Treatment and diagnosis of dementia” (Laboratorios Serono S.A., priority 1988, dated 1990):

Tests used:
Male Wistar rats [1] = test: Locomotor activity and learning in maze paradigm (escape from 1.5 mA shock area), i.c.v. injection; assay type: in vivo
Protocol: The animals had to learn to escape from the shock area in order to avoid a continuous 1.5 mA electric shock. Experimental time --30 minutes.
The rats were treated intracerebroventricularly with SS-14 (1 mcg) and GRF1-44 (1 mcg) and their behavior was automatically recorded by computer using the maze paradigm shown in FIG. 1. p/t denotes pulses per time unit (minute). Locomotor activity was quantified in pulses per minute or cm^2 /min. Total inputs (I/O) in neutral position (white bars) and shock position (black bars) denote how many times the animals enter neutral and shock areas. The N/S ratio results from dividing I/O in neutral position by I/O in shock position and is interpreted as an index of learning in the 30-minute experimental period. The positional time (seconds) represents how long the animals stay in neutral (white bars) or shock (black bars) areas. N-sp and S-sp (in seconds) indicate the time-latency per movement or input in neutral (white bars) and shock (black bars) areas, respectively.
To clarify whether SS and GRF display at the central level the same antagonistic effect that they have at the pituitary level, the effects of these neuropeptides on several behavioral parameters have been studied using the OUCEM-86^TM (Osaka University Computerized Electronic Maze). The system is integrated by the following components: a Programmable Electronic Platform (PEP) (620×620 mm) equipped with 48 photo beam sensors (OPX-T30); a Programming Panel (PP) (Model BECM-0064) for paradigm stimulation; a Shock Generator Scrambler (SGS) (Model BSG-1065) to apply continuous or discontinuous electric current to the PEP; a Control Station (CS) (BEC 16-Bio Computer Control Station BCS-1105; Bio Medica, Ltd., Osaka) which processes inputs/outputs as an interface device to automatically computerize behavioral parameters; and a Computer System (NEC PC-9801 VM2) with 1 megabyte Random Access Memory (RAM) for data processing and experimental setting.
Male Wistar rats (175-200 g) (N =5-8 rats/group) received intracerebroventricular (i.c.v.) injections of GRF1-44 and SS-14 over a range of 0.1 to 10 mcg. Then the rats were studied in the OUCEM under two different paradigms (e.g., open field and maze paradigms).
The amount of inputs (I/O) induced by SS was 103.5±29.5 (control =216.25±55.19, t=8.49, p<0.005) in the neutral area (NA) and 77.14±13.5 I/O in the shock area (SA) (control =298±40, t=1.26, n.s.). GRF generated 459.35±32.5 I/O in NA (t=18.13, p<0.005) and 340.5±63.5 I/O in SA (t=9.07, p<0.005) (FIGS. 1C,3). The NA/SA (N/S) ratios for control, SS- and GRF-treated rats were 0.72, 1.33, and 1.35, respectively (FIG. 2).

[2] = tested on: female in-patients with primary degenerative dementia (Alzheimer like); test: 8-day GRF (1-29) NH2 therapy, MMS Folstein test and Crichton's scale; assay type: in vivo, human; settings: for MMS Folstein and Crichton's scale scores and clinical findings: 8 days, 12 hours, 24 hours, 7 days
Protocol: Twenty female in-patients with primary degenerative dementia (Alzheimer like) aged 67-84 years were divided in two therapy-groups with GRF (1-29) NH2. All patients were treated with this product for 8 days with either of the following schedules: (I) 250 mcg s.c. twice daily (II) 50 mcg i.v. twice daily Therapy was started after a 15-day wash-out period for psychotropic-drugs. Evolution of patients was assessed using the MMS Folstein test and Chrichton's scale test at 12 hours, 24 hours and 7 days after starting with GRF. The statistical evaluation was made using Friedman test with a risk level p<0,01 (highly significant differences).

Male Wistar rats [3] = test: Locomotor activity and learning in maze paradigm (escape from 1.5 mA shock area), i.c.v. injection; assay type: in vivo; settings: GRF1-44 5 mcg i.c.v., 30 minutes; control 17.12±5.42 pm

## growth hormone releasing factor [GRF]
Male Wistar rats [1]; 1 mcg i.c.v., 30 minutes, control 17.12±5.42 pm
  locomotor activity (LA), maze paradigm: 26.66±3.15 pm
Male Wistar rats [1]; 1 mcg i.c.v., control 0.72
  NA/SA (N/S) ratio (index of learning): 1.35
Male Wistar rats [1]; 1 mcg i.c.v., control 216.25±55.19
  amount of inputs (I/O) in the neutral area (NA): 459.35±32.5 I/O
Male Wistar rats [1]; 1 mcg i.c.v., control 298±40
  amount of inputs (I/O) in the shock area (SA): 340.5±63.5 I/O
Male Wistar rats [1]; GRF i.c.v., hyperkinetic syndrome, vs control group
  I/O rate and positional time in SA: significantly higher than in the control group
Male Wistar rats [1]; doses of approximately 6.10×10^-10 mol (SS) and 1.98×10^-10 mol (GRF), i.c.v.
  learning abilities (N/S ratio as index): improve learning abilities
[2]; GRF (1-29) NH2 50 mcg i.v. vs 250 mcg s.c. twice daily
  comparison of i.v. and s.c. groups (increase in scores and clinical findings): more important in the group with i.v. GRF administration than in the one with s.c. administration
[2]; GRF (1-29) NH2, both groups
  persistence of effect: remains significant over the whole 7 days of treatment
  start of effect after administration: 12 h
[2]; GRF (1-29) NH2 administration discontinued
  sphincter control and general psychomotricity after discontinuation: returned to pretreatment situation
[2]; during treatment with GRF (1-29) NH2
  sphincter control and general psychomotricity (nurse's report): improvement
[2]; group I: GRF (1-29) NH2 250 mcg s.c. twice daily
  MMS Folstein and Crichton's scale scores and clinical findings: significant increase
[2]; group II: GRF (1-29) NH2 50 mcg i.v. twice daily
  MMS Folstein and Crichton's scale scores and clinical findings: significant increase
Male Wistar rats [3]
  locomotor activity (LA), maze paradigm: 90.2±8.4 pm
